Where two headings read alike, the source gives them in different places.
What was measured:
[1] = target: p110δ/p85α (Homo sapiens (Human), UniProt O00329); assay: PI 3-Kinase (human) HTRF assay, p110δ/p85α; format: biochemical
[2] = target: recombinant mTOR (Homo sapiens (Human), UniProt P42345); assay: mTOR inhibition assay (radiometric or LanthaScreen TR-FRET); format: biochemical
[3] = target: p110α/p85α (Homo sapiens (Human), UniProt P42336); assay: PI 3-Kinase (human) HTRF assay, p110α/p85α; format: biochemical
[4] = target: p110γ (Homo sapiens (Human), UniProt P48736); assay: PI 3-Kinase (human) HTRF assay, p110γ; format: biochemical
[5] = tested on: tumor cells with a PI3Kα mutation (e.g., MDA-MB-361 and T47D); assay: Proliferation of tumor cells with PI3Kα mutation; format: cell-based; conditions: Homo sapiens
[6] = target: p110β/p85α (Homo sapiens (Human), UniProt P42338); assay: PI 3-Kinase (human) HTRF assay, p110β/p85α; format: biochemical
[7] = in vitro, read-out: PI3K δ IC50
[8] = in vitro, read-out: PI3K α IC50
[9] = in vitro, read-out: PI3K γ IC50
[10] = T47D cells, read-out: T47D proliferation IC50
[11] = in vitro, read-out: PI3K β IC50
[12] = PC3, read-out: PC3 proliferation In Vitro IC50

p110γ, sequence (P48736 whole entry): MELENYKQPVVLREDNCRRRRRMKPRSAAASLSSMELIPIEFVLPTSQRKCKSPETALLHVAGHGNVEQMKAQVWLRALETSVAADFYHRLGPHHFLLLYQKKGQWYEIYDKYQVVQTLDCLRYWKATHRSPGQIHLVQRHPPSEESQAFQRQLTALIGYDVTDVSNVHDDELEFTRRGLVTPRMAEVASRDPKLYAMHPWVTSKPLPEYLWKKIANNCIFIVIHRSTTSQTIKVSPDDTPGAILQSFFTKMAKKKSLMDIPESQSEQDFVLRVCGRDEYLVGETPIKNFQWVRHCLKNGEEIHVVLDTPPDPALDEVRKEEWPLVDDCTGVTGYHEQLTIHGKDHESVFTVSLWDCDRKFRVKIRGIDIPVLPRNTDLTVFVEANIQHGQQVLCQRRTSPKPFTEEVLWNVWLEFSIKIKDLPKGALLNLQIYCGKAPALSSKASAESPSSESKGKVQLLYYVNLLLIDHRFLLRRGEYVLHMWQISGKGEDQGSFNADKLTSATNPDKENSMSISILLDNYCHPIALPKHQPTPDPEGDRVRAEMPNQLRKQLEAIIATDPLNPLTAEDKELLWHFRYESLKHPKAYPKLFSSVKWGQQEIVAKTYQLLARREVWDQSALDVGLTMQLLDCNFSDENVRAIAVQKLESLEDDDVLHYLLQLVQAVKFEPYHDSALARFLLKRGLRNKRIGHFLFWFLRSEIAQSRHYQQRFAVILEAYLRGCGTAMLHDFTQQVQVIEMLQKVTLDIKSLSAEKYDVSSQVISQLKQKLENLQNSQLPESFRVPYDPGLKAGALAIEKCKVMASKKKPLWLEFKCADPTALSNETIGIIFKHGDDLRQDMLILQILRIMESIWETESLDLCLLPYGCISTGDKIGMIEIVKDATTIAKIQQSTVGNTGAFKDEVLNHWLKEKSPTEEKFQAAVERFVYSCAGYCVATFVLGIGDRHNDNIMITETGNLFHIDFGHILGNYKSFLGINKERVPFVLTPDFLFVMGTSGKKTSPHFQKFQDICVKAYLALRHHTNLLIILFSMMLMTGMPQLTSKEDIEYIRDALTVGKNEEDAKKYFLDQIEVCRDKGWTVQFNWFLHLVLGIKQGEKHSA
p110α/p85α, sequence (P42336 whole entry): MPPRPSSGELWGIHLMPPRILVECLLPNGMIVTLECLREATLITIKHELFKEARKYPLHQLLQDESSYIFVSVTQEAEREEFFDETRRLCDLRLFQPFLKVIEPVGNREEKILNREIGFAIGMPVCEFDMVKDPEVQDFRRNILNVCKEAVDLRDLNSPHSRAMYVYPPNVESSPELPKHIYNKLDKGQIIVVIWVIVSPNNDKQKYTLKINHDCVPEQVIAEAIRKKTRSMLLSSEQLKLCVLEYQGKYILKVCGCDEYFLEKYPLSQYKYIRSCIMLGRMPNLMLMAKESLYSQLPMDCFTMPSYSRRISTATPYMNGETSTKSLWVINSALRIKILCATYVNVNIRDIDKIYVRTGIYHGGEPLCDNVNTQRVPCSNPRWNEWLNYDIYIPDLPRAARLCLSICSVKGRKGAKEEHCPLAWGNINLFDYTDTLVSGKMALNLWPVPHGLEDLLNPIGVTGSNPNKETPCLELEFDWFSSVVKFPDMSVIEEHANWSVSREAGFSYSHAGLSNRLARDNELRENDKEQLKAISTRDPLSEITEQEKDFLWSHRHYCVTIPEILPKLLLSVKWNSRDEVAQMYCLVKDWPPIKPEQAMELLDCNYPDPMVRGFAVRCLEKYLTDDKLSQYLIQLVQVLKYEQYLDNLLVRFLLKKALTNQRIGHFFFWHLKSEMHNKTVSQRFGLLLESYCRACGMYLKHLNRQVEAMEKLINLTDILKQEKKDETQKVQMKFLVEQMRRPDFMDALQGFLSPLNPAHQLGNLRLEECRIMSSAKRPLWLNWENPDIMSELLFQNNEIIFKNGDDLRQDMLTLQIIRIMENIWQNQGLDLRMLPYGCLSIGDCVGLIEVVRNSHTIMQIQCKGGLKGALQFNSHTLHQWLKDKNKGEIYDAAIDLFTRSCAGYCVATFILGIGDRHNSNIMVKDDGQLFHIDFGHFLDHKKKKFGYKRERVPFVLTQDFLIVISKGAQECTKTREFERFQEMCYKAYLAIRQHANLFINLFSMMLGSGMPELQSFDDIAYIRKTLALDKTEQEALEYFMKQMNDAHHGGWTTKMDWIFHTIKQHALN
p110α/p85α, sequence (P27986 whole entry partner): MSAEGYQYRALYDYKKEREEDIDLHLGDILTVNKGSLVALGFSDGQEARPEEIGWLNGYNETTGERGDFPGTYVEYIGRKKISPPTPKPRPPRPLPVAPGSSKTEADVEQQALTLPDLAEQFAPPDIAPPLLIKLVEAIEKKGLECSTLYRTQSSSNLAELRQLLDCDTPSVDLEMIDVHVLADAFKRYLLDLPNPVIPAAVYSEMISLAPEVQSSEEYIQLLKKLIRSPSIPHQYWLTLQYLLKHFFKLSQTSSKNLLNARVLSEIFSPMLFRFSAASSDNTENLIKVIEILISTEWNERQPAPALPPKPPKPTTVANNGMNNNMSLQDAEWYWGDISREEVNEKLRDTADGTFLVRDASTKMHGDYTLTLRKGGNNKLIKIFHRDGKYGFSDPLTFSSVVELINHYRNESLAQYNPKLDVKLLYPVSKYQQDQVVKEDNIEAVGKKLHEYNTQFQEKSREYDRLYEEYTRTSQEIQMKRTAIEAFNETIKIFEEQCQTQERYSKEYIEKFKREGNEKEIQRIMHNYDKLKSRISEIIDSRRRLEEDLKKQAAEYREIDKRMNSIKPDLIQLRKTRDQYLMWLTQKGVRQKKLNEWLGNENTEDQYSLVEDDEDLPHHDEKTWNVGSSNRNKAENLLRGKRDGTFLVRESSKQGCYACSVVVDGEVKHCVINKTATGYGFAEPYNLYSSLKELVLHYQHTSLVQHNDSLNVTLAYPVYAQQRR
p110δ/p85α, sequence (O00329 whole entry): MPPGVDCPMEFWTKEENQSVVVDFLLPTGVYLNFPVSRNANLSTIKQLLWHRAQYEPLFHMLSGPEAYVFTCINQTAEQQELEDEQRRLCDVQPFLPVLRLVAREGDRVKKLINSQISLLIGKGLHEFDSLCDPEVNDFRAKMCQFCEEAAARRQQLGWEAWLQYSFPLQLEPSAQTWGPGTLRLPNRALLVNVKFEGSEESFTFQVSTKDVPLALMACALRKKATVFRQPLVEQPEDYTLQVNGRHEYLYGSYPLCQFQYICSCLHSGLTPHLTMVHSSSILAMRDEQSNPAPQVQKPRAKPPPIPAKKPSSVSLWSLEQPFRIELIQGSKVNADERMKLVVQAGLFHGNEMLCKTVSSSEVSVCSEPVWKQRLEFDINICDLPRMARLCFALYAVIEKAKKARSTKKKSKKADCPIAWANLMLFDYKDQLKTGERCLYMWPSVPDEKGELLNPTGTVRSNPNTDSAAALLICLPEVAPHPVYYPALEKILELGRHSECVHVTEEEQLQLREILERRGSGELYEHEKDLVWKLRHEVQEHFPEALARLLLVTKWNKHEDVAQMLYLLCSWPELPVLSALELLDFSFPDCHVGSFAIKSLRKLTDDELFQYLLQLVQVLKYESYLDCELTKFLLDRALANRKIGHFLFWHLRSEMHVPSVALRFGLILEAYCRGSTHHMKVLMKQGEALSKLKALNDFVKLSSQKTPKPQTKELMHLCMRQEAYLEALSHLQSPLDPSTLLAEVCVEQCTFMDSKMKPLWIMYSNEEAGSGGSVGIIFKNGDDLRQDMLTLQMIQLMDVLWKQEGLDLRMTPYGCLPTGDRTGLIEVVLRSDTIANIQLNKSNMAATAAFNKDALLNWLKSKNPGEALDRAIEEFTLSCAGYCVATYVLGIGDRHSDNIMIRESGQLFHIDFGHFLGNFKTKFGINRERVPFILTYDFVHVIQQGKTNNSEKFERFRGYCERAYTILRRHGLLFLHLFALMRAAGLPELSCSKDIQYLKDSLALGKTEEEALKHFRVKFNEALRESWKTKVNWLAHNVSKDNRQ
p110δ/p85α, sequence (P27986 whole entry partner): as the sequence (P27986 whole entry partner) above
p110β/p85α, sequence (P42338 whole entry): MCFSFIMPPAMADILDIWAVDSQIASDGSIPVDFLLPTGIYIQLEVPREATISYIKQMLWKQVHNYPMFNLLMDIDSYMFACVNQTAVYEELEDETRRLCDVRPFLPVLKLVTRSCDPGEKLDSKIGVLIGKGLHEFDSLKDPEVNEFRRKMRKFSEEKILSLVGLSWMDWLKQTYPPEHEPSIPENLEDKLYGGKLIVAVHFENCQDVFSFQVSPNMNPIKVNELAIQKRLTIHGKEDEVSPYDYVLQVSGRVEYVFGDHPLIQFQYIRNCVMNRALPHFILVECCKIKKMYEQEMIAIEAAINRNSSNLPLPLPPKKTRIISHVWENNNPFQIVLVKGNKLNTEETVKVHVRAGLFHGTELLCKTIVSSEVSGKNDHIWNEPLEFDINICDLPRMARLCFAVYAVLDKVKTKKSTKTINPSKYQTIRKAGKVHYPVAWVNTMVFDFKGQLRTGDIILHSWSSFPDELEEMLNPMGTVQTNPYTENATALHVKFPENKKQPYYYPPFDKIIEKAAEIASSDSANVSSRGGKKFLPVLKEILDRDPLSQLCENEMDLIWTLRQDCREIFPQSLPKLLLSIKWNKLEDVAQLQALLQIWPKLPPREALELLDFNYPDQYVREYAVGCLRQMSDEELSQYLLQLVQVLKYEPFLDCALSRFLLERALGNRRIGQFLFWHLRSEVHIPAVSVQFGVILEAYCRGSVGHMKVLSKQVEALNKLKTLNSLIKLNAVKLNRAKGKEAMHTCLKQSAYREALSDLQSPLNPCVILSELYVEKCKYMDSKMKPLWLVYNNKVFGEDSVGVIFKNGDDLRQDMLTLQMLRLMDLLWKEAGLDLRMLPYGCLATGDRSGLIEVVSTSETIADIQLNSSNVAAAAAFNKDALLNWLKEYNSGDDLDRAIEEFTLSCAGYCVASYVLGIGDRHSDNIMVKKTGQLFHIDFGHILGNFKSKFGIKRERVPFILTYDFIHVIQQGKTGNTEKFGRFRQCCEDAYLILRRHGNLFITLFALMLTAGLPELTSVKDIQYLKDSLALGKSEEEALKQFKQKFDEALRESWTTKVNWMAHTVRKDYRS
p110β/p85α, sequence (P27986 whole entry partner): as the sequence (P27986 whole entry partner) above

Row | IC50 ([1]; read-out: PI3K δ In Vitro IC50) [nM] | IC50 ([3]; read-out: PI3K α In Vitro IC50) [nM] | IC50 ([4]; read-out: PI3K γ In Vitro IC50) [nM] | IC50 ([6]; read-out: PI3K β In Vitro IC50) [nM] | IC50 [5, 12] [nM] | Compound | IC50 [1, 7] [nM] | IC50 ([2]; in vitro, read-out: MTORC IC50) [nM] | IC50 [3, 8] [nM] | IC50 [4, 9] [nM] | IC50 [5, 10] [nM] | IC50 [6, 11] [nM] | IC50 ([2]; read-out: MTORC In Vitro IC50) [nM]
1 |  |  |  |  |  | Nc1nc2cc(-c3ccc4nc(N)oc4c3)ccc2o1 [compound 241] | < 1000 | < 10000 | < 1000 | < 100 |  |  | 
2 |  |  |  |  |  | Nc1nc2cc(-c3ccc4ncc(N5CC[C@H](O)C5)nc4c3)ccc2o1 [compound 262] |  | < 10000 | < 100 | < 1000 | < 10000 | < 1000 | 
3 |  |  |  |  |  | Nc1nc2cc(-c3ccc4ncc(N5CC(N6CCOCC6)C5)nc4c3)ccc2o1 [compound 273] |  | < 1000 | < 100 | < 10000 | < 1000 |  | 
4 |  |  |  |  |  | CN1CCN(C2CN(C(=O)c3cnc4ccc(-c5ccc6oc(N)nc6c5)cn34)C2)CC1 [compound 303] | < 10000 | < 10000 | < 100 |  | < 1000 |  | 
5 |  |  |  |  |  | Nc1nc2cc(-c3ccc4ncc(N5CC(N6CCN(C7CC7)CC6)C5)nc4c3)ccc2o1 [compound 313] | < 10000 | < 10000 | < 100 | < 10000 |  | < 10000 | 
6 |  |  |  |  |  | Nc1nc2cc(-c3ccc4ncc(N5CC(N6CC[C@@H](O)C6)C5)nc4c3)ccc2o1 [compound 315] | < 10000 | < 1000 | < 100 | < 10000 |  | < 10000 | 
7 |  |  |  |  |  | Nc1nc2cc(-c3ccc4ncc(N5CC(n6cccn6)C5)nc4c3)ccc2o1 [compound 318] |  | < 1000 | < 100 | < 1000 |  | < 10000 | 
8 |  |  |  |  |  | COC(=O)N1CCC(n2ncc3c(N4CCOCC4)nc(-c4ccc5oc(N)nc5c4)nc32)CC1 [compound 330] |  | < 1000 | < 1000 |  |  | < 10000 | 
9 |  |  |  |  |  | Nc1nc2cc(-c3ccc4ncc(N5CCC(n6ccnc6)CC5)nc4c3)ccc2o1 [compound 345] | < 1000 | < 10000 | < 100 | < 1000 |  | < 1000 | 
10 |  |  |  |  |  | Nc1nc2cc(-c3nc(N4CCOCC4)c4cnn(C5CCNCC5)c4n3)ccc2o1 [compound 348] | < 10000 | < 1000 | < 1000 | < 1000 |  | < 100 | 
11 |  |  |  |  |  | CS(=O)(=O)N1CCN(C2CCN(c3cnc4ccc(-c5ccc6oc(N)nc6c5)cc4n3)CC2)CC1 [compound 377] | < 10000 | < 10000 | < 100 | < 1000 |  | < 10000 | 
12 |  |  |  |  |  | CN(C)[C@@H]1CCN(c2cnc3ccc(-c4ccc5oc(N)nc5c4)cc3n2)C1 [compound 378] | < 10000 | < 1000 | < 100 | < 10000 |  | < 100 | 
13 |  |  |  |  |  | CN1CCN([C@@H]2CCN(c3cnc4ccc(-c5ccc6oc(N)nc6c5)cc4n3)C2)CC1 [compound 379] | < 10000 | < 10000 | < 100 |  |  | < 1000 | 
14 |  |  |  |  |  | Nc1nc2cc(-c3ccc4ncc(N5CCNC(C(F)(F)F)C5)nc4c3)ccc2o1 (stereo not drawn) [compound 384] | < 10000 | < 1000 | < 100 | < 1000 |  | < 1000 | 
15 |  |  |  |  |  | CC1(C)CN(C2CN(c3cnc4ccc(-c5ccc6oc(N)nc6c5)cc4n3)C2)CCN1 [compound 388] | < 1000 | < 100 | < 100 | < 1000 |  | < 1000 | 
16 | < 1000 | < 100 | < 10000 | < 10000 | < 1000 | C[C@H]1CN(C2CN(C(=O)c3cnc4ccc(-c5ccc6oc(N)nc6c5)cn34)C2)CCN1C [compound 512] |  |  |  |  |  |  | 
17 | < 100 | < 100 | < 1000 | < 10000 | < 1000 | CC1(C)CN(C2CN(C(=O)c3cnc4ccc(-c5ccc6oc(N)nc6c5)cn34)C2)CCN1 [compound 515] |  |  |  |  |  |  | 
18 | < 100 | < 100 | < 100 | < 100 | < 1000 | COc1ncc(-c2ccc3ncn(C4CCN(C(C)C)CC4)c(=O)c3c2)cc1NS(=O)(=O)c1ccccc1 [compound 522] |  |  |  |  |  |  | 
19 | < 100 | < 100 | < 100 | < 1000 | < 10000 | CC(C)N1CCC(n2cnc3ccc(-c4cnc(Cl)c(NS(C)(=O)=O)c4)cc3c2=O)CC1 [compound 523] |  |  |  |  |  |  | 
20 | < 100 | < 100 | < 1000 | < 100 | < 1000 | COc1ncc(-c2ccc3ncn(C4CCN(C)CC4)c(=O)c3c2)cc1NS(=O)(=O)c1ccccc1 [compound 524] |  |  |  |  |  |  | 

Row | Compound | IC50 ([1]; read-out: PI3K δ In Vitro IC50) [nM] | IC50 ([3]; read-out: PI3K α In Vitro IC50) [nM] | IC50 ([4]; read-out: PI3K γ In Vitro IC50) [nM] | IC50 ([6]; read-out: PI3K β In Vitro IC50) [nM] | IC50 [5, 12] [nM] | IC50 [1, 7] [nM] | IC50 ([2]; in vitro, read-out: MTORC IC50) [nM] | IC50 [3, 8] [nM] | IC50 [4, 9] [nM] | IC50 [5, 10] [nM] | IC50 [6, 11] [nM] | IC50 ([2]; read-out: MTORC In Vitro IC50) [nM]
21 | COc1ncc(-c2ccc3ncc(C(=O)N4CCOCC4)n3c2)cc1NS(=O)(=O)c1ccc(F)cc1F [compound 417] | < 100 | < 100 | < 100 | < 100 |  |  |  |  |  |  |  | < 1000
22 | CS(=O)(=O)Nc1cc(-c2ccc3ncc(C(=O)N4CCOCC4)n3c2)cnc1Cl [compound 418] | < 100 | < 100 | < 100 | < 100 |  |  |  |  |  |  |  | < 100
23 | O=C(c1cnc2ccc(-c3cnc(Cl)c(NS(=O)(=O)c4ccc(F)cc4F)c3)cn12)N1CCOCC1 [compound 419] | < 100 | < 100 | < 100 | < 100 |  |  |  |  |  |  |  | < 1000

From patent publication US11547697B2, “Heterocyclic compounds and uses thereof” (MILLENNIUM PHARMACEUTICALS, INC., priority 2009, dated 2023)
